According to US20050025841A1, “Therapeutic methods using herbal compositions” (priority 2001, published 2005):

What was measured:
[1] = system: polychromatic erythrocytes in the mouse bone marrow; conditions: CTX 30 mg/kg alone; 8000 cells
breast cancer = conditions: women at high risk of breast cancer, versus placebo; cited from earlier work

| SMILES | Micronucleus Rate [1] | decrease in invasive cancer (breast cancer) | decrease in non-invasive breast cancer (breast cancer) |
| --- | --- | --- | --- |
| O=P1(N(CCCl)CCCl)NCCCO1 (stereo not drawn) [CTX, cyclophosphamide] | 17.3 ± 1.1 %0 |  |  |
| CC/C(=C(\c1ccccc1)c1ccc(OCCN(C)C)cc1)c1ccccc1 [Tamoxifen] |  | 49% | 50% |
